Source: ChEMBL document CHEMBL1926576, “Fragment based lead discovery of small molecule inhibitors for the EPHA4 receptor tyrosine kinase” (Eur J Med Chem, 2012)

Experiments:
[1] = molecular target: Tyrosine-protein kinase SYK (Homo sapiens) (UniProt P43405); assay: Inhibition of SYK assessed as residual activity at 10 uM using [33P-ATP] by radiometric filter binding assay
[2] = molecular target: Tyrosine-protein kinase JAK2 (Homo sapiens) (UniProt O60674); assay: Inhibition of JAK2 assessed as residual activity at 10 uM using [33P-ATP] by radiometric filter binding assay
[3] = molecular target: Mitogen-activated protein kinase 14 (Homo sapiens) (UniProt Q16539); assay: Inhibition of p38alpha MAPK assessed as residual activity at 10 uM using [33P-ATP] by radiometric filter binding assay
[4] = molecular target: MAP kinase-interacting serine/threonine-protein kinase 1 (Homo sapiens) (UniProt Q9BUB5); assay: Inhibition of MNK1 assessed as residual activity at 10 uM using [33P-ATP] by radiometric filter binding assay
[5] = molecular target: Myosin light chain kinase, smooth muscle (Homo sapiens) (UniProt Q15746); assay: Inhibition of SmMLCK assessed as residual activity at 10 uM using [33P-ATP] by radiometric filter binding assay
[6] = molecular target: Mitogen-activated protein kinase 10 (Homo sapiens) (UniProt P53779); assay: Inhibition of JNK3 assessed as residual activity at 10 uM using [33P-ATP] by radiometric filter binding assay
[7] = molecular target: Protein kinase C gamma type (Homo sapiens) (UniProt P05129); assay: Inhibition of PKCgamma assessed as residual activity at 10 uM using [33P-ATP] by radiometric filter binding assay
[8] = molecular target: Serine/threonine-protein kinase pim-2 (Homo sapiens) (UniProt Q9P1W9); assay: Inhibition of PIM2 assessed as residual activity at 10 uM using [33P-ATP] by radiometric filter binding assay
[9] = molecular target: Serine/threonine-protein kinase OSR1 (Homo sapiens) (UniProt O95747); assay: Inhibition of OSR1 assessed as residual activity at 10 uM using [33P-ATP] by radiometric filter binding assay
[10] = molecular target: Serine/threonine-protein kinase Nek2 (Homo sapiens) (UniProt P51955); assay: Inhibition of NEK2alpha assessed as residual activity at 10 uM using [33P-ATP] by radiometric filter binding assay
[11] = molecular target: Insulin receptor (Homo sapiens) (UniProt P06213); assay: Inhibition of IR assessed as residual activity at 10 uM using [33P-ATP] by radiometric filter binding assay
[12] = molecular target: Ephrin type-A receptor 2 (Homo sapiens) (UniProt P29317); assay: Inhibition of EPHA2 assessed as residual activity at 10 uM using [33P-ATP] by radiometric filter binding assay
[13] = molecular target: Ephrin type-B receptor 3 (Homo sapiens) (UniProt P54753); assay: Inhibition of EPHB3 assessed as residual activity at 10 uM using [33P-ATP] by radiometric filter binding assay
[14] = molecular target: High affinity nerve growth factor receptor (Homo sapiens) (UniProt P04629); assay: Inhibition of TrkA assessed as residual activity at 10 uM using [33P-ATP] by radiometric filter binding assay
[15] = molecular target: Serine/threonine-protein kinase Chk2 (Homo sapiens) (UniProt O96017); assay: Inhibition of CHK2 assessed as residual activity at 10 uM using [33P-ATP] by radiometric filter binding assay
[16] = molecular target: Death-associated protein kinase 1 (Homo sapiens) (UniProt P53355); assay: Inhibition of DAPK1 assessed as residual activity at 10 uM using [33P-ATP] by radiometric filter binding assay
[17] = Inhibition of AMPK assessed as residual activity at 10 uM using [33P-ATP] by radiometric filter binding assay
[18] = molecular target: Dual specificity testis-specific protein kinase 1 (Homo sapiens) (UniProt Q15569); assay: Inhibition of TESK1 assessed as residual activity at 10 uM using [33P-ATP] by radiometric filter binding assay
[19] = molecular target: Mitogen-activated protein kinase kinase kinase kinase 2 (Homo sapiens) (UniProt Q12851); assay: Inhibition of GCK assessed as residual activity at 10 uM using [33P-ATP] by radiometric filter binding assay
[20] = molecular target: Serine/threonine-protein kinase TBK1 (Homo sapiens) (UniProt Q9UHD2); assay: Inhibition of TBK1 assessed as residual activity at 10 uM using [33P-ATP] by radiometric filter binding assay
[21] = molecular target: Aurora kinase A (Homo sapiens) (UniProt O14965); assay: Inhibition of aurora-A assessed as residual activity at 10 uM using [33P-ATP] by radiometric filter binding assay
[22] = molecular target: Interleukin-1 receptor-associated kinase 1 (Homo sapiens) (UniProt P51617); assay: Inhibition of IRAK1 assessed as residual activity at 10 uM using [33P-ATP] by radiometric filter binding assay
[23] = molecular target: Serine/threonine-protein kinase Chk1 (Homo sapiens) (UniProt O14757); assay: Inhibition of CHK1 assessed as residual activity at 10 uM using [33P-ATP] by radiometric filter binding assay
[24] = molecular target: Mitogen-activated protein kinase 8 (Homo sapiens) (UniProt P45983); assay: Inhibition of JNK1 assessed as residual activity at 10 uM using [33P-ATP] by radiometric filter binding assay
[25] = molecular target: Dual specificity tyrosine-phosphorylation-regulated kinase 1A (Homo sapiens) (UniProt Q13627); assay: Inhibition of DYRK1A assessed as residual activity at 10 uM using [33P-ATP] by radiometric filter binding assay
[26] = molecular target: Mitogen-activated protein kinase kinase kinase 5 (Homo sapiens) (UniProt Q99683); assay: Inhibition of ASK1 assessed as residual activity at 10 uM using [33P-ATP] by radiometric filter binding assay
[27] = molecular target: Serine/threonine-protein kinase pim-3 (Homo sapiens) (UniProt Q86V86); assay: Inhibition of PIM3 assessed as residual activity at 10 uM using [33P-ATP] by radiometric filter binding assay
[28] = molecular target: Fibroblast growth factor receptor 1 (Homo sapiens) (UniProt P11362); assay: Inhibition of FGF-R1 assessed as residual activity at 10 uM using [33P-ATP] by radiometric filter binding assay
[29] = molecular target: Dual specificity tyrosine-phosphorylation-regulated kinase 3 (Homo sapiens) (UniProt O43781); assay: Inhibition of DYRK3 assessed as residual activity at 10 uM using [33P-ATP] by radiometric filter binding assay
[30] = molecular target: Mitogen-activated protein kinase 12 (Homo sapiens) (UniProt P53778); assay: Inhibition of p38-gamma MAPK assessed as residual activity at 10 uM using [33P-ATP] by radiometric filter binding assay
[31] = molecular target: Serine/threonine-protein kinase 16 (Homo sapiens) (UniProt O75716); assay: Inhibition of MPSK1 assessed as residual activity at 10 uM using [33P-ATP] by radiometric filter binding assay
[32] = molecular target: Rho-associated protein kinase 2 (Homo sapiens) (UniProt O75116); assay: Inhibition of ROCK2 assessed as residual activity at 10 uM using [33P-ATP] by radiometric filter binding assay
[33] = molecular target: Protein-tyrosine kinase 6 (Homo sapiens) (UniProt Q13882); assay: Inhibition of BRK assessed as residual activity at 10 uM using [33P-ATP] by radiometric filter binding assay
Chain of Protein-tyrosine kinase 6 (Homo sapiens) (Q13882 whole entry, looked up): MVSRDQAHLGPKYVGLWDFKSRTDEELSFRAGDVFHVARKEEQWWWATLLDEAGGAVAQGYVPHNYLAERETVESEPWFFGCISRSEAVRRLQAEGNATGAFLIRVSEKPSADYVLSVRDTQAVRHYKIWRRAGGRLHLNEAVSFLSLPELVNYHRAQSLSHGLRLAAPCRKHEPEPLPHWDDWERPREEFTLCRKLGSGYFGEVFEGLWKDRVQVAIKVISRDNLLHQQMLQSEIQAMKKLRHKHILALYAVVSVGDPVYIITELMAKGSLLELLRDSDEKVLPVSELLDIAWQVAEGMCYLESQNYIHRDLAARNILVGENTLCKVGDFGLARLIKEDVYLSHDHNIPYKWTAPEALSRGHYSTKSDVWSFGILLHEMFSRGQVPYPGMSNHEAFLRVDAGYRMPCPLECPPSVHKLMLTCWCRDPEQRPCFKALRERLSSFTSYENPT

Chain of Serine/threonine-protein kinase 16 (Homo sapiens) (O75716 whole entry, looked up): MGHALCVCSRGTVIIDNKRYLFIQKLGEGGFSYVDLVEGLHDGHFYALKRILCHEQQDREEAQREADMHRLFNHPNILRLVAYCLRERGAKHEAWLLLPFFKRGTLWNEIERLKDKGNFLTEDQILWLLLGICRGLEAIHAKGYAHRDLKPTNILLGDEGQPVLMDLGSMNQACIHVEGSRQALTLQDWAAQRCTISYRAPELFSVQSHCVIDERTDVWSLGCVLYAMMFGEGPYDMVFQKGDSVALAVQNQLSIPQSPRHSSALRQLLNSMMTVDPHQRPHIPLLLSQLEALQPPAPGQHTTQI
Chain of Insulin receptor (Homo sapiens) (P06213 28-758 limits assumed): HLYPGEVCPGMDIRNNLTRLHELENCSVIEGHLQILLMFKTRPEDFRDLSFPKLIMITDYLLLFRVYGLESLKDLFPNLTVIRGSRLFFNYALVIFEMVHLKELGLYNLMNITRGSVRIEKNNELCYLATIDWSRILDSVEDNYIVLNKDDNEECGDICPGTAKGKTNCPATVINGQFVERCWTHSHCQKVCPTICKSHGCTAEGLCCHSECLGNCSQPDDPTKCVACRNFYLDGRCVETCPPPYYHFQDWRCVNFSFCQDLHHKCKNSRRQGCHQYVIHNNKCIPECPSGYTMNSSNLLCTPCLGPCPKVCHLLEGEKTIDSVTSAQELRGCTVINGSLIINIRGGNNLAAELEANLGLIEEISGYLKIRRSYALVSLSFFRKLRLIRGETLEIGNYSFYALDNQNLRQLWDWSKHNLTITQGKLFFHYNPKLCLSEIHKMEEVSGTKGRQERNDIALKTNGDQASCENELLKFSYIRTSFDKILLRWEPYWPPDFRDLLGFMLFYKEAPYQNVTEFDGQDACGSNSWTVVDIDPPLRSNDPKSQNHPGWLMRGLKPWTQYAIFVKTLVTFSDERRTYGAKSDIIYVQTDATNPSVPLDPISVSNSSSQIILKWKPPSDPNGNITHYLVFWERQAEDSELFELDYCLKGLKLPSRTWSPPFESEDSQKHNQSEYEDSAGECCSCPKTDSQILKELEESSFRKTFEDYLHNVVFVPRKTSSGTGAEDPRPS
Chain of Insulin receptor (Homo sapiens) (P06213 763-1382 limits assumed): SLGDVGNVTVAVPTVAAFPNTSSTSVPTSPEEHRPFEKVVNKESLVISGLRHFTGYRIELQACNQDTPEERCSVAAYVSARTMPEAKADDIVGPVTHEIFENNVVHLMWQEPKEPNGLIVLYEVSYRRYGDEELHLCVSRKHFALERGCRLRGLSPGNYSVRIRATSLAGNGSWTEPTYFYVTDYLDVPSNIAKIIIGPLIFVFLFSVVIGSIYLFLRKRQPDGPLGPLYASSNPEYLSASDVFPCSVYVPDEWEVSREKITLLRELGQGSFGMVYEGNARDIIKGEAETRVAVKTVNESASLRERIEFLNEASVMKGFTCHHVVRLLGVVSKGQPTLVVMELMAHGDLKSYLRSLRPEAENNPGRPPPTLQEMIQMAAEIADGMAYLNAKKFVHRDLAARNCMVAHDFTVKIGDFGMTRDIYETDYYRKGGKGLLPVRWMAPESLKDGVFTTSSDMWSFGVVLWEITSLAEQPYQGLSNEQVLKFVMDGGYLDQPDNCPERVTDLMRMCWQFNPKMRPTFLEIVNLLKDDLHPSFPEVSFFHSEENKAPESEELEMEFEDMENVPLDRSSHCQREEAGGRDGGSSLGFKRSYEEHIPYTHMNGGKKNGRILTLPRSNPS
Chain of MAP kinase-interacting serine/threonine-protein kinase 1 (Homo sapiens) (Q9BUB5 whole entry, looked up): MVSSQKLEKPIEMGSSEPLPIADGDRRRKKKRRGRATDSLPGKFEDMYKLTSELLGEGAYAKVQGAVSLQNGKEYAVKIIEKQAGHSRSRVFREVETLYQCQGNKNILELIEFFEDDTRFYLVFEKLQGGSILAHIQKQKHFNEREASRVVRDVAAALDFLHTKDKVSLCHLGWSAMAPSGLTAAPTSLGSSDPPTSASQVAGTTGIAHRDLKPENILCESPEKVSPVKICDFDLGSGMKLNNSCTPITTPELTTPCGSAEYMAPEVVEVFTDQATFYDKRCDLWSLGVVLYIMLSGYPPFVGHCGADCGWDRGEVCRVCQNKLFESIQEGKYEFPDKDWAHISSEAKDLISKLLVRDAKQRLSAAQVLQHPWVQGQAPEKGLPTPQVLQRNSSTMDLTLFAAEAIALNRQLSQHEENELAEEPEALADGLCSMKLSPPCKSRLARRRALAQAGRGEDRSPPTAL
Chain of Fibroblast growth factor receptor 1 (Homo sapiens) (P11362 22-822 limits assumed): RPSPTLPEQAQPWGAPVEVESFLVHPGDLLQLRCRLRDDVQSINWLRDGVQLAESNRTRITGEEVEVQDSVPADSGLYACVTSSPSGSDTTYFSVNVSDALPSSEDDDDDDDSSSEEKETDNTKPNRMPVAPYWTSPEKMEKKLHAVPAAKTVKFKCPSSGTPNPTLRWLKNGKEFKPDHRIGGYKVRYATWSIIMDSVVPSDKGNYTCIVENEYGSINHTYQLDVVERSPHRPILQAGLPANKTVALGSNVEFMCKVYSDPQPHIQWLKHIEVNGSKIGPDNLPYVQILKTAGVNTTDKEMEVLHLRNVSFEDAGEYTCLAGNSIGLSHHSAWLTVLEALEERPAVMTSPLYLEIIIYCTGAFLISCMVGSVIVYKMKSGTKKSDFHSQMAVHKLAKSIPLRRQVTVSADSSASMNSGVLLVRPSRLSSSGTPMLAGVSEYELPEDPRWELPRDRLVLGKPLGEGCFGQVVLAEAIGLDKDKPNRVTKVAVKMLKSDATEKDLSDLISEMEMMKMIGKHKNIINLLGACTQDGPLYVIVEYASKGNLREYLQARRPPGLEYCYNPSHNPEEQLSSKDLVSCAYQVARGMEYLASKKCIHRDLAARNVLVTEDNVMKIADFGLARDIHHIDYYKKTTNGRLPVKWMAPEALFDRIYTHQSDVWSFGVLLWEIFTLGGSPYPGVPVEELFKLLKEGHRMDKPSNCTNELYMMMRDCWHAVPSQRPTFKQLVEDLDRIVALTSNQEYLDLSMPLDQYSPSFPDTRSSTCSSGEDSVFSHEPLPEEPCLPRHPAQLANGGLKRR
Chain of Mitogen-activated protein kinase 14 (Homo sapiens) (Q16539 whole entry): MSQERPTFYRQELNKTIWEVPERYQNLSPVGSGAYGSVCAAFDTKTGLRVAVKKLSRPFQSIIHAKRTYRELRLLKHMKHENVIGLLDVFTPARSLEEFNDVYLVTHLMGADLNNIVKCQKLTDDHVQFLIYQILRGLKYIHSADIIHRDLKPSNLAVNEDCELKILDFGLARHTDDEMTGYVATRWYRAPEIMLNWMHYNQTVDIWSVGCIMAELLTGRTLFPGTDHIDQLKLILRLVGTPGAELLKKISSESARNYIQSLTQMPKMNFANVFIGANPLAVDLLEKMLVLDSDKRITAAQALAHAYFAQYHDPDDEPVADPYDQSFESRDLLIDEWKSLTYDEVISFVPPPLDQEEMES
Chain of Aurora kinase A (Homo sapiens) (O14965 whole entry): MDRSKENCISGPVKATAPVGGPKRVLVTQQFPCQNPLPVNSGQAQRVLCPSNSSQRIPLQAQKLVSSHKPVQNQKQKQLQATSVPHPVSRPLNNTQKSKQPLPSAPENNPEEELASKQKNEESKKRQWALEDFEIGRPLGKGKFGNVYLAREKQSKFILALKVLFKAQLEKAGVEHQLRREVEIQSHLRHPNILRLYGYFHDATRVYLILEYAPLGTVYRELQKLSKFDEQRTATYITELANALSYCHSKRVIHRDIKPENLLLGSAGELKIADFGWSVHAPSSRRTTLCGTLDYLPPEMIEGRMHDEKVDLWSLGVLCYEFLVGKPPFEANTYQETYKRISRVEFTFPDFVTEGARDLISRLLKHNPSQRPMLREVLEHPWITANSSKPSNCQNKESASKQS

`Cc1ccc(F)cc1-c1nc2[nH]nc(N)c2c2c1CCCC2` showed an Activity [1] of 76%, an Activity [2] of 74% and an Activity [3] of 54%. It also gave an Activity [4] of 78%, an Activity [5] of 63% and an Activity [6] of 72%. It also gave an Activity [7] of 108%, an Activity [8] of 100% and an Activity [9] of 81%. For the same compound, the Activity [10] was 91%, the Activity [11] was 83% and the Activity [12] was 29%. It also gave an Activity [13] of 7%, an Activity [14] of 45% and an Activity [15] of 113%. It also gave an Activity [16] of 101%, an Activity [17] of 86% and an Activity [18] of 23%. For the same compound, the Activity [19] was 59%, the Activity [20] was 107% and the Activity [21] was 68%. The Activity [22] was 87%, the Activity [23] was 100% and the Activity [24] was 94%. The Activity [25] was 60%, the Activity [26] was 99% and the Activity [27] was 82%. It also gave an Activity [28] of 55%, an Activity [29] of 95% and an Activity [30] of 91%. The Activity [31] was 71%, the Activity [32] was 90% and the Activity [33] was 71%.
